From paper PMC12064818, “A general assay platform to study protein pharmacology using ligand-dependent structural dynamics” (Nature Communications, 2025)

molecular target: T1, FLuc-C-HiBiT (Photinus pyralis, UniProt P08659); test: biochemical; details: enzyme activity, 10 uM ATP; read-out: IC50 or SDR50 (mM) / FLuc E
T1 construct: firefly luciferase with C-terminal HiBiT tag, E. coli expressed
T1 sequence (P08659 whole entry, looked up): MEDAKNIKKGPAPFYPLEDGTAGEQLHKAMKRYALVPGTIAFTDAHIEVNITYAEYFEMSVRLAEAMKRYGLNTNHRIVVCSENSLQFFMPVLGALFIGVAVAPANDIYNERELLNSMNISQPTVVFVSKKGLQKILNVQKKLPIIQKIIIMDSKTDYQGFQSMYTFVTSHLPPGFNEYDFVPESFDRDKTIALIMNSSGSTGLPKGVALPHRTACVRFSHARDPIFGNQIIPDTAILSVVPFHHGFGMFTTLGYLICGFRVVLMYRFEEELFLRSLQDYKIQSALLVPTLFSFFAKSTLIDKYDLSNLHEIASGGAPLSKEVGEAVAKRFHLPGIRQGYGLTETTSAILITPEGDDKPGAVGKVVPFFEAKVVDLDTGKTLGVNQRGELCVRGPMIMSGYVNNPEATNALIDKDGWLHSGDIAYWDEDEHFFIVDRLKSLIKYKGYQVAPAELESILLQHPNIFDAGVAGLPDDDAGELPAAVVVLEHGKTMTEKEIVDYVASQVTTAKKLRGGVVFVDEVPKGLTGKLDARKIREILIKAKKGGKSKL

SMILES | IC50 [mM]
CC(=O)Nc1cccc(-c2cc3c(cn2)CN(Cc2ccccc2)CCN3)c1 [NCGC00411143-01] | 0.0161
Cc1cc(-c2cc3c(cn2)CN(Cc2c[nH]cn2)CCN3)ccn1 [NCGC00411148-01] | 0.018
Cc1cc(-c2cc3c(cn2)CN(Cc2ccccn2)CCN3)ccn1 [NCGC00411150-01] | 0.0202
COc1ccc(-c2cc3c(cn2)CN(Cc2ccncc2)CCN3)cc1 [NCGC00411159-01] | 0.0161
COc1cccc(CN2CCNc3cc(Nc4ccccc4)ncc3C2)c1 [NCGC00411172-01] | 0.018
Cc1cc(-c2cc3c(cn2)CN(Cc2cccs2)CCN3)ccn1 [NCGC00411196-01] | 0.0114
Oc1ccccc1CN1CCNc2cc(Nc3ccccc3)ncc2C1 [NCGC00411199-02] | 0.0124
COc1cccc(CN2CCNc3cc(Nc4cccnc4)ncc3C2)c1 [NCGC00411206-01] | 0.018
COc1ccc(CN2CCNc3cc(-c4ccccc4)ncc3C2)cn1 [NCGC00411207-01] | 0.0202
COCCN1CCNc2cc(-c3cccc(N(C)C)c3)ncc2C1 [NCGC00411224-01] | 0.0161
Cc1nc[nH]c1CN1CCNc2cc(Nc3ccccc3)ncc2C1 [NCGC00411231-01] | 0.018
NC(=O)c1cccc(-c2cc3c(cn2)CN(Cc2ccccc2)CCN3)c1 [NCGC00411232-01] | 0.0202
CC(=O)N1CCNc2cc(Nc3cccc(N(C)C)c3)ncc2C1 [NCGC00411238-01] | 0.0161
CCn1cc(-c2cc3c(cn2)CN(C)CCN3)cn1 [NCGC00411244-01] | 0.0226
c1cncc(Nc2cc3c(cn2)CN(Cc2c[nH]cn2)CCN3)c1 [NCGC00411246-03] | > 0.03
CC(=O)N1CCNc2cc(-c3cccc(N4CCOCC4)c3)ncc2C1 [NCGC00411247-01] | 0.018
CC(=O)N1CCNc2cc(-c3cccc(F)c3)ncc2C1 [NCGC00411252-01] | 0.0254
COc1ccc(-c2cc3c(cn2)CN(C)CCN3)cn1 [NCGC00411253-01] | 0.0226
CCCN1CCNc2cc(Nc3ccccc3)ncc2C1 [NCGC00411254-01] | 0.0254
CC(C)(C)CN1CCNc2cc(Nc3cccnc3)ncc2C1 [NCGC00411255-01] | 0.0064
Fc1ccc(-c2cc3c(cn2)CN(Cc2ccncc2)CCN3)cc1Cl [NCGC00411256-01] | 0.018
CC(C)(C)CN1CCNc2cc(Nc3ccccc3)ncc2C1 [NCGC00411260-01] | 0.00718

SMILES | IC50 [mM]
CN1CCNc2cc(Nc3ccc(F)cc3)ncc2C1 [NCGC00411261-01] | 0.0202
CN1CCNc2cc(Nc3ccc(F)c(Cl)c3)ncc2C1 [NCGC00411263-01] | 0.0128
Cn1ccc2c(C(=O)NCCc3c[nH]cn3)nc(-c3ccc(N4CCOCC4)cc3)cc21 [NCGC00411589-01] | 0.00453
CN1CCN(c2ccc(-c3cc4c(ccn4C)c(C(=O)NCCN4CCNC4=O)n3)cc2)CC1 [NCGC00411611-01] | 0.0124
Cn1ccc2c(C(=O)NCc3cccnc3)nc(-c3ccc(N4CCOCC4)cc3)cc21 [NCGC00411612-01] | 0.018
CN1CCN(c2ccc(-c3cc4c(ccn4C)c(C(=O)NCCc4ccccn4)n3)cc2)CC1 [NCGC00411712-01] | 0.00279
CN1CCN(c2ccc(-c3cc4c(ccn4C)c(C(=O)NCC4CCC(=O)N4)n3)cc2)CC1 (stereo not shown) [NCGC00411731-01] | 0.0157
CN1CCN(c2ccc(-c3cc4c(ccn4C)c(C(=O)NCCC(N)=O)n3)cc2)CC1 [NCGC00411733-01] | 0.0143
OC(c1nc(Nc2ccc(Oc3ccccc3)cc2)n[nH]1)C1CC1 (stereo not shown) [NCGC00411906-01] | 0.0202
COc1ccc(-c2cnc3[nH]cc(CC(=O)N4CCN(c5ccccn5)CC4)c3c2)cc1 [NCGC00412443-01] | 0.018
Fc1cc(Nc2cnc3ccc(-c4ccccc4)nn23)cc(N2CCOCC2)c1 [NCGC00412489-01] | 0.0161
COc1ccc(-c2ccc3ncc(Nc4cc(F)cc(N5CCOCC5)c4)n3n2)cc1OC [NCGC00412497-01] | 0.0111
COc1ccc(-c2cnc(Nc3cccc(N[S+](C)(=O)[O-])c3)c3c2CCO3)cn1 [NCGC00412697-01] | 0.018
CNC(=O)c1cccc(-c2cnc(NC(=O)Cc3ccccc3)c3c2CCO3)c1 [NCGC00412711-01] | 0.00321
Fc1cccc(-c2cnc(Nc3ccc(N4CCOCC4)cc3)c3c2CCO3)c1 [NCGC00412721-01] | 0.0161
CNC(=O)c1cccc(-c2cnc(NC(=O)c3cn(C)cn3)c3c2CCO3)c1 [NCGC00412729-01] | 0.0202
COc1cccc(Nc2ncc(-c3cccnc3)c3c2OCC3)c1 [NCGC00412731-01] | 0.018
Clc1ccc(Nc2ncc(-c3cccnc3)c3c2OCC3)cc1 [NCGC00412736-01] | 0.018
CNC(=O)c1cccc(-c2cnc(Nc3cccnc3OC)c3c2CCO3)c1 [NCGC00412753-01] | 0.00508
Fc1ccc(Nc2ncc(-c3cccnc3)c3c2OCC3)cc1 [NCGC00412761-01] | 0.0114
CNC(=O)c1cccc(-c2cnc(Nc3ccccc3)c3c2CCO3)c1 [NCGC00412768-01] | 0.018
c1ccc(-c2cnc(Nc3ccc4c(c3)OCCO4)c3c2CCO3)cc1 [NCGC00412769-01] | 0.0161

SMILES | IC50 [mM]
O=C(Nc1ncc(-c2ccccc2)c2c1OCC2)c1ccccc1 [NCGC00412770-01] | 0.018
COc1ccc(-c2cnc(Nc3ccccc3)c3c2CCO3)cn1 [NCGC00412779-01] | 0.018
COc1cccc(Nc2ncc(-c3ccc(OC)nc3)c3c2OCC3)c1 [NCGC00412784-01] | 0.0202
CNC(=O)c1cccc(-c2cnc(Nc3ccc(Cl)cn3)c3c2CCO3)c1 [NCGC00412786-01] | 0.0101
CNC(=O)c1cccc(-c2cnc(NC(=O)c3ccncc3)c3c2CCO3)c1 [NCGC00412795-01] | 0.0202
c1ccc(Nc2ncc(-c3cccnc3)c3c2OCC3)cc1 [NCGC00412806-01] | 0.0226
COCCNc1ncc(-c2cccc(NC(C)=O)c2)c2c1OCC2 [NCGC00412815-01] | 0.0161
Cn1cc(-c2cnc(Nc3ccc(N4CCOCC4)cc3)c3c2CCO3)cn1 [NCGC00412818-01] | 0.0143
Cc1ccc(CN2CCc3nc(C(=O)Nc4ccccc4)oc3CC2)cc1 [NCGC00413255-01] | 0.0161
O=C(Nc1ccccc1)c1nc2c(o1)CCN(Cc1cccnc1)CC2 [NCGC00413263-01] | 0.0057
Cc1csc(NC(=O)c2nc3c(o2)CCN(Cc2ccccc2F)CC3)n1 [NCGC00413264-01] | 0.0128
O=C(Nc1cccnc1)c1nc2c(o1)CCN(Cc1nccs1)CC2 [NCGC00413267-01] | 0.0202
Cc1csc(NC(=O)c2nc3c(o2)CCN(Cc2cccc(F)c2)CC3)n1 [NCGC00413280-01] | 0.0143
O=C(Nc1ccccc1)c1nc2c(o1)CCN(Cc1ccccc1)CC2 [NCGC00413286-01] | 0.00453
O=C(Nc1ccccc1)c1nc2c(o1)CCN(Cc1ccc(F)cc1)CC2 [NCGC00413289-01] | 0.018
COc1ccccc1CN1CCc2nc(C(=O)Nc3ccccc3)oc2CC1 [NCGC00413298-01] | 0.0161
Cn1cc(CN2CCc3nc(C(=O)Nc4ccccc4)oc3CC2)cn1 [NCGC00413305-01] | 0.018
COc1cccc(CN2CCc3nc(C(=O)Nc4nc(C)cs4)oc3CC2)c1 [NCGC00413306-01] | 0.018
CCCN1CCc2nc(C(=O)Nc3ccccc3)oc2CC1 [NCGC00413331-01] | 0.018
O=C(Nc1ccccc1)c1nc2c(o1)CCN(CC1CC1)CC2 [NCGC00413351-01] | 0.0161
Cn1ccnc1CN1CCc2nc(C(=O)Nc3ccccc3)oc2CC1 [NCGC00413360-01] | 0.0202
Cc1noc(C)c1CN1CCc2nc(C(=O)Nc3ccccc3)oc2CC1 [NCGC00413386-01] | > 0.03

SMILES | IC50 [mM]
O=C(Nc1ccccc1)c1nc2c(o1)CCN(Cc1cccc(Cl)c1)CC2 [NCGC00413390-01] | 0.0101
O=C(Nc1ccccc1)c1nc2c(o1)CCN(Cc1ccccn1)CC2 [NCGC00413398-01] | 0.018
O=C(Nc1ccccc1)c1nc2c(o1)CCN(Cc1ccc(O)cc1)CC2 [NCGC00413411-01] | 0.00508
O=C(Nc1cccnc1)c1nc2c(o1)CCN(Cc1ccc(O)cc1)CC2 [NCGC00413415-01] | 0.018
O=C(Nc1cccnc1)c1nc2c(o1)CCN(Cc1cccc(O)c1)CC2 [NCGC00413425-01] | 0.0202
COc1ccc(-c2ncc3c(n2)OCCN(C)C3=O)cc1F [NCGC00413447-01] | 0.018
O=C1c2cnc(-c3cccc(CO)c3)nc2OCCN1c1cccc(C(F)(F)F)c1 [NCGC00413455-01] | 0.0202
COCCN1CCOc2nc(-c3cccc(N(C)C)c3)ncc2C1=O [NCGC00413458-01] | 0.018
O=C1c2cnc(-c3ccc(Cl)cc3)nc2OCCN1CC1CC1 [NCGC00413489-01] | 0.00404
O=C1c2cnc(-c3cccc(C(F)(F)F)c3)nc2OCCN1CC1CC1 [NCGC00413514-01] | 0.00904
O=C1c2cnc(-c3ccccc3)nc2OCCN1CC1CC1 [NCGC00413518-01] | 0.0161
COc1cccc(-c2ncc3c(n2)OCCN(c2ccccc2)C3=O)c1 [NCGC00413522-01] | 0.0018
COc1ccc(-c2ncc3c(n2)OCCN(c2ccccc2)C3=O)cc1F [NCGC00413523-01] | 0.00321
CN1CCOc2nc(-c3cccc(OC(F)(F)F)c3)ncc2C1=O [NCGC00413529-01] | 0.018
Cc1ccc(-c2ncc3c(n2)OCCN(Cc2ccc(F)cc2F)C3=O)cc1 [NCGC00413538-01] | > 0.03
COc1ccc(CN2CCOc3nc(-c4cc5ccccc5o4)ncc3C2=O)cc1 [NCGC00413542-01] | 0.00805
COc1ccc(-c2ncc3c(n2)OCCN(CC2CC2)C3=O)cc1 [NCGC00413552-01] | 0.00805
O=C1c2cnc(-c3cccc(CO)c3)nc2OCCN1c1ccccc1 [NCGC00413559-01] | 0.0114
CN1CCOc2nc(-c3ccc(Oc4ccccc4)cc3)ncc2C1=O [NCGC00413560-01] | 0.0161
Cc1ccc(-c2ncc3c(n2)OCCN(C)C3=O)c(C)c1 [NCGC00413561-01] | 0.0226
O=C1c2cnc(-c3ccc(CO)cc3)nc2OCCN1CC1CC1 [NCGC00413563-01] | 0.0114
COCCN1CCOc2nc(-c3cc(F)cc(OC)c3)ncc2C1=O [NCGC00413569-01] | 0.0114
